Assays:
Assay in all cases: In vivo IPTG dose-response of LacI-regulated eYFP expression from the pVER plasmid in E. coli grown in rich M9 medium at 37 °C, measured by flow cytometry and fitted to the Hill equation by Bayesian MCMC (posterior mean and SD).
Conditions in all cases: read-out: log_ec50 (base-10 logarithm of EC50 in μmol/L) (converted)
pVER-IPTG-004(V136E) = target: T1, pVER-IPTG-004(V136E) (Escherichia coli, UniProt P03023, A87P/E357G/V136E/V301M); type: cell-based, E. coli MG1655Δlac
T1 construct: gene lacI; LacI expressed from pVER plasmid
Protocol: (§1) All reported measurements were completed using E. coli strain MG1655Δlac, in which the lactose operon of E. coli strain MG1655 (ATCC #47076) was replaced with the bleomycin resistance gene from Streptoalloteichus hindustanus (Shble).
(§2) Dose-response curves were measured with flow cytometry using E. coli MG1655Δlac transformed with variants of the pVER plasmid, described previously. The plasmid contained different variants of the lacI coding DNA sequence (CDS), as described in the text, and an expression cassette with enhanced yellow fluorescent protein (eYFP) under the control of the lactose operator (lacO). The lacI CDS was verified with Sanger sequencing for each variant.
(§3) All cultures were grown in a rich M9 media (3 g/L KH2PO4, 6.78 g/L Na2HPO4, 0.5 g/L NaCl, 1 g/L NH4Cl, 0.1 mmol/L CaCl2, 2 mmol/L MgSO4, 4% glycerol, and 20 g/L casamino acids) supplemented with 50 μg/mL kanamycin.
(§4) • Prepare first growth plate, with 450 μL rich M9 media in each well. • Pipette 50 μL of starter culture into each well in rows B-G of the plate (leaving rows A and H blank). • Use a E. coli containing a different lacI variant for each row. • Seal first growth plate with gas permeable membrane. • Incubate plate in plate reader for 12 h to 14 h. • Grow to stationary to provide a reproducible starting point for each measurement. • Prepare second growth plate with 490 μL in each well. • Dilution series of isopropyl-β-D-thiogalactopyranoside (IPTG): 11 columns of a 2-fold serial dilution gradient and one column with zero IPTG. • Ten minutes before the end of the incubation cycle for the first growth plate, move the second growth plate to a heated station set to 47°C. • Ten minutes at 47°C will pre-warm the media in the plate to 37°C. • De-seal the first growth plate (after completion of the stationary-phase incubation cycle). • Pipette 10 μL from each well in the first growth plate to the corresponding well in the second growth plate. • 50-fold dilution; using a 96-channel pipetting head. • Seal second growth plate with gas permeable membrane. • Incubate second growth plate in plate reader for 160 minutes. • Sufficient for approximately 10-fold increase in cell density or 3.3 doublings. • Prepare third growth plate with 450 μL in each well. • Same dilution series as in second growth plate. • Ten minutes before the end of the incubation cycle for the second growth plate, move the third growth plate to a heated station set to 47°C. • De-seal the second growth plate (after completion of the 160 minute incubation cycle). • Pipette 50 μL from each well in the second growth plate to the corresponding well in the third growth plate. • 10-fold dilution; using a 96-channel pipetting head. • Seal third growth plate with gas permeable membrane. • Incubate third growth plate in plate reader for 160 minutes. • Prepare flow cytometry sample plate (round-bottom 96-well plate, Falcon, 351177). • Each well in rows B-G: 195 μL 1x PBS with 170 μg/mL chloramphenicol (Fisher BioReagents, cat. #BP904-100). • Rows A and H: PBS blanks, focusing fluid blanks, and space for calibration bead sample • At the end of the incubation cycle for the third growth plate, pipette 5 μL from each well to the corresponding well in the flow cytometry sample plate.
(§5) Flow cytometry samples were measured with an Attune NxT flow cytometer equipped with a 96-well plate autosampler using a 488 nm excitation laser and a 530 nm ± 15 nm bandpass emission filter. Blank samples were measured with each batch of cell measurements, and an automated gating algorithm was used to discriminate cell events from non-cell events. Fluorescence calibration beads (Spherotech, part no. RCP-30-20A) were also measured with each batch of samples to facilitate calibration of flow cytometry data to molecules of equivalent fluorescein (MEF). […]

pVER-IPTG-079 = target: T2, pVER-IPTG-079 (Escherichia coli, UniProt P03023, A116T/S190C/T141I/V99E); type: cell-based, E. coli MG1655Δlac
T2 construct: gene lacI; LacI expressed from pVER plasmid
Protocol: as §1, §2, §3, §4, §5

pVER-IPTG-002(V136E) = target: T3, pVER-IPTG-002(V136E) (Escherichia coli, UniProt P03023, M254I/S158R/T154I/V136E/V238D/V264I/V96E); type: cell-based, E. coli MG1655Δlac
T3 construct: gene lacI; LacI expressed from pVER plasmid
Protocol: as §1, §2, §3, §4, §5

pVER-IPTG-010 = target: T4, pVER-IPTG-010 (Escherichia coli, UniProt P03023, A72V/I210F/K84N/M254T/T336S); type: cell-based, E. coli MG1655Δlac
T4 construct: gene lacI; LacI expressed from pVER plasmid
Protocol: as §1, §2, §3, §4, §5

pVER-IPTG-004(V80L) = target: T5, pVER-IPTG-004(V80L) (Escherichia coli, UniProt P03023, A87P/E357G/V301M/V80L); type: cell-based, E. coli MG1655Δlac
T5 construct: gene lacI; LacI expressed from pVER plasmid
Protocol: as §1, §2, §3, §4, §5

pVER-IPTG-002 = target: T6, pVER-IPTG-002 (Escherichia coli, UniProt P03023, M254I/S158R/T154I/V238D/V264I/V96E); type: cell-based, E. coli MG1655Δlac
T6 construct: gene lacI; LacI expressed from pVER plasmid
Protocol: as §1, §2, §3, §4, §5

pVER-IPTG-077 = target: T7, pVER-IPTG-077 (Escherichia coli, UniProt P03023, A222T/D152E/I64V/K327N/L295M/N208I/Q131R/T141A/V95M); type: cell-based, E. coli MG1655Δlac
T7 construct: gene lacI; LacI expressed from pVER plasmid
Protocol: as §1, §2, §3, §4, §5

pVER-IPTG-078 = target: T8, pVER-IPTG-078 (Escherichia coli, UniProt P03023, A110V/A72V/N142D/S322L); type: cell-based, E. coli MG1655Δlac
T8 construct: gene lacI; LacI expressed from pVER plasmid
Protocol: as §1, §2, §3, §4, §5

pVER-IPTG-001 = target: T9, pVER-IPTG-001 (Escherichia coli, UniProt P03023, D130E/D267N/N333I/Q55H/T258I/V192A/Y273H); type: cell-based, E. coli MG1655Δlac
T9 construct: gene lacI; LacI expressed from pVER plasmid
Protocol: as §1, §2, §3, §4, §5

pVER-IPTG-082 = target: T10, pVER-IPTG-082 (Escherichia coli, UniProt P03023, G200A/Q209R/Q317L/R263H/S190C/V94M); type: cell-based, E. coli MG1655Δlac
T10 construct: gene lacI; LacI expressed from pVER plasmid
Protocol: as §1, §2, §3, §4, §5

pVER-IPTG-004(S70R) = target: T11, pVER-IPTG-004(S70R) (Escherichia coli, UniProt P03023, A87P/E357G/S70R/V301M); type: cell-based, E. coli MG1655Δlac
T11 construct: gene lacI; LacI expressed from pVER plasmid
Protocol: as §1, §2, §3, §4, §5

pVER-IPTG-002(S70R) = target: T12, pVER-IPTG-002(S70R) (Escherichia coli, UniProt P03023, M254I/S158R/S70R/T154I/V238D/V264I/V96E); type: cell-based, E. coli MG1655Δlac
T12 construct: gene lacI; LacI expressed from pVER plasmid
Protocol: as §1, §2, §3, §4, §5

pVER-IPTG-WT = target: T13, pVER-IPTG-WT (Escherichia coli, UniProt P03023); type: cell-based
T13 construct: gene lacI; full-length LacI expressed from pVER plasmid; wild type
Protocol: as §1
as §2, with “variant. […]” for “variant.”
as §5

T7 sequence (P03023 whole entry I64V/V95M/Q131R/T141A/D152E/N208I/A222T/L295M/K327N): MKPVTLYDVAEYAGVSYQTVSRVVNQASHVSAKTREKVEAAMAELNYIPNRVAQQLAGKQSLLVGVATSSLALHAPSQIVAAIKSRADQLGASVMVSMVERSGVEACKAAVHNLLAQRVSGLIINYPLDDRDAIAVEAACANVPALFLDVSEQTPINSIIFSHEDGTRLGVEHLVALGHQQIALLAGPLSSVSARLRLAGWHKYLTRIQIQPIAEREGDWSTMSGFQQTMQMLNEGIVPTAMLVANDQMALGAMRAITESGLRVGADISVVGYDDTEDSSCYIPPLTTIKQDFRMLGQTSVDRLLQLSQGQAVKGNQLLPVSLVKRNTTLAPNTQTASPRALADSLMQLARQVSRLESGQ
T13 sequence (P03023 whole entry): as the sequence (P03023 whole entry I64V/V95M/Q131R/T141A/D152E/N208I/A222T/L295M/K327N) above, with V64I, M95V, R131Q, A141T, E152D, I208N, T222A, M295L, N327K counted along it
T4 sequence (P03023 whole entry A72V/K84N/I210F/M254T/T336S): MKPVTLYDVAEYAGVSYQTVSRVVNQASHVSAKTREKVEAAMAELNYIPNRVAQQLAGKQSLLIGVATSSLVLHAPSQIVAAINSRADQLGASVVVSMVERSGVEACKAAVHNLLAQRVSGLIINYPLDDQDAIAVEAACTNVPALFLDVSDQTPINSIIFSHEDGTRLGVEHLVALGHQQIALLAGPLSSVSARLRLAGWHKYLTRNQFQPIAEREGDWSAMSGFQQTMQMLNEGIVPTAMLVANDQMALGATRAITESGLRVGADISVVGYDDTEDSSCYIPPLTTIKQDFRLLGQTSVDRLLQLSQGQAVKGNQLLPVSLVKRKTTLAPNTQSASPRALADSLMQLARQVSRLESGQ
T9 sequence (P03023 whole entry Q55H/D130E/V192A/T258I/D267N/Y273H/N333I): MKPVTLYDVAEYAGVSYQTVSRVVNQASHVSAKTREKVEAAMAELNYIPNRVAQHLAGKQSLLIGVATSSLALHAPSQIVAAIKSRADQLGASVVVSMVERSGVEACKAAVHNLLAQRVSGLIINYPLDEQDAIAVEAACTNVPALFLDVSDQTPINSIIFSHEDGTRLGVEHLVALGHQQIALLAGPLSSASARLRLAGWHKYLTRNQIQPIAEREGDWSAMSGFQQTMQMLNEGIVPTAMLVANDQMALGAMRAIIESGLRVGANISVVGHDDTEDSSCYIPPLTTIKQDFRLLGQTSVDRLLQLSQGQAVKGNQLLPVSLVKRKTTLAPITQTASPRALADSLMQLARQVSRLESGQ
T1 sequence (P03023 whole entry A87P/V136E/V301M/E357G): as the sequence (P03023 whole entry A72V/K84N/I210F/M254T/T336S) above, with V72A, N84K, A87P, V136E, F210I, T254M, V301M, S336T, E357G counted along it
T11 sequence (P03023 whole entry S70R/A87P/V301M/E357G): as the sequence (P03023 whole entry A72V/K84N/I210F/M254T/T336S) above, with S70R, V72A, N84K, A87P, F210I, T254M, V301M, S336T, E357G counted along it
T8 sequence (P03023 whole entry A72V/A110V/N142D/S322L): as the sequence (P03023 whole entry A72V/K84N/I210F/M254T/T336S) above, with N84K, A110V, N142D, F210I, T254M, S322L, S336T counted along it
T10 sequence (P03023 whole entry V94M/S190C/G200A/Q209R/R263H/Q317L): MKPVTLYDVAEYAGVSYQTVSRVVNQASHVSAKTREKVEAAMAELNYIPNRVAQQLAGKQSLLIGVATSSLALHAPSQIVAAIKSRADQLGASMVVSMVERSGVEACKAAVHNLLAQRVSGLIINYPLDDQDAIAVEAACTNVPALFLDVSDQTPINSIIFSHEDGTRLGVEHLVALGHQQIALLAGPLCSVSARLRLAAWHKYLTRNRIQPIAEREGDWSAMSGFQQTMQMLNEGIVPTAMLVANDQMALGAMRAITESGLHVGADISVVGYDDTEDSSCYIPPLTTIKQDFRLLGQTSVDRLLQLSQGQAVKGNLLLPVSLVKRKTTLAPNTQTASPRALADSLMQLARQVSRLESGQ
T5 sequence (P03023 whole entry V80L/A87P/V301M/E357G): as the sequence (P03023 whole entry A72V/K84N/I210F/M254T/T336S) above, with V72A, V80L, N84K, A87P, F210I, T254M, V301M, S336T, E357G counted along it
T12 sequence (P03023 whole entry S70R/V96E/T154I/S158R/V238D/M254I/V264I): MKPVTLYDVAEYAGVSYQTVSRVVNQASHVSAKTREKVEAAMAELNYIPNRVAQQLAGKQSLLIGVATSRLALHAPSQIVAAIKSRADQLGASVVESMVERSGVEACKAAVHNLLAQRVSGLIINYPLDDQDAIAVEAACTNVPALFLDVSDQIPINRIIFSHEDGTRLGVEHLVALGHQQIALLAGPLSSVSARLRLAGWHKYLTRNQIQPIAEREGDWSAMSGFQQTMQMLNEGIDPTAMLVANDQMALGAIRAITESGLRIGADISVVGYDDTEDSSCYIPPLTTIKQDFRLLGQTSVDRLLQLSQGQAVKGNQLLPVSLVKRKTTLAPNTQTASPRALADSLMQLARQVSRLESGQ
T2 sequence (P03023 whole entry V99E/A116T/T141I/S190C): as the sequence (P03023 whole entry V94M/S190C/G200A/Q209R/R263H/Q317L) above, with M94V, V99E, A116T, T141I, A200G, R209Q, H263R, L317Q counted along it
T3 sequence (P03023 whole entry V96E/V136E/T154I/S158R/V238D/M254I/V264I): as the sequence (P03023 whole entry S70R/V96E/T154I/S158R/V238D/M254I/V264I) above, with R70S, V136E counted along it
T6 sequence (P03023 whole entry V96E/T154I/S158R/V238D/M254I/V264I): as the sequence (P03023 whole entry S70R/V96E/T154I/S158R/V238D/M254I/V264I) above, with R70S counted along it

CC(C)S[C@@H]1O[C@H](CO)[C@H](O)[C@H](O)[C@H]1O [IPTG, isopropyl-β-D-thiogalactopyranoside]
EC50 (pVER-IPTG-004(V136E)): 421000 µmol/L | EC50 (pVER-IPTG-079): 7.24 µmol/L | EC50 (pVER-IPTG-002(V136E)): 464000 µmol/L | EC50 (pVER-IPTG-010): 9.17 µmol/L | EC50 (pVER-IPTG-004(V80L)): 36.8 µmol/L | EC50 (pVER-IPTG-002): 233 µmol/L | EC50 (pVER-IPTG-077): 2.95 µmol/L | EC50 (pVER-IPTG-078): 3.61 µmol/L | EC50 (pVER-IPTG-001): 774 µmol/L | EC50 (pVER-IPTG-082): 27.8 µmol/L | EC50 (pVER-IPTG-004(S70R)): 3890 µmol/L | EC50 (pVER-IPTG-002(S70R)): 4690 µmol/L | EC50 (pVER-IPTG-WT): 119 µmol/L
